Source: ChEMBL document CHEMBL6078727 (Bioorg Med Chem, 2025)
The source made the active and inactive calls. The calls are words filed in the database; no cut-off is given here.

How the values were obtained:
[1] = Induction of mitochondrial uncoupling activity in rat L6 myoblast cells assessed as increase in oxygen consumption rate measured over 90 mins; type: functional, cell-based
[2] = Cmax in C57BL/6J mouse at 10 mg/kg, po administrated via oral gavage by LC-MS/MS analysis; type: ADME, organism-based; details: in vivo
[3] = (§1) Induction of mitochondrial uncoupling activity in rat L6 myoblast cells assessed as increase in oxygen consumption rate by measuring ratio of integrated area under OCR dose curve above baseline relative to BAM15 up to 200 uM over 90 mins; type: functional
[4] = Half-life in male C57BL/6J mouse plasma at 10 mg/kg, po administrated via oral gavage by LC-MS/MS analysis; type: ADME, organism-based; details: in vivo
L6 = assay: as §1; type: functional

Structure (SMILES)	EC50 [1] [µM]	Cmax ([2]; po, 10 mg/kg) [nM]	Activity [3] [%]	t1/2 [4] [min]	Activity (L6)	Cmax ([2]; C57BL/6J) [nM]
CC(C)(C)OC(=O)NNc1nc2nonc2nc1Nc1ccccc1Cl	4.6	170	87	108	–	–
O=C(ONc1nc2nonc2nc1Nc1ccccc1F)c1cccc(F)c1	0.71	–	102	–	–	–
O=C(ONc1nc2nonc2nc1Nc1ccccc1F)c1cc(C(F)(F)F)ccc1F	1.4	–	75	–	–	–
Cc1cc(C)cc(C(=O)ONc2nc3nonc3nc2Nc2ccccc2F)c1	1.49	–	9	–	–	–
CC(C)(C)OC(=O)NNc1nc2nonc2nc1Nc1cccc(Cl)c1	1.6	–	78	–	–	–
CC(C)(C)OC(=O)NNc1nc2nonc2nc1Nc1ccccc1F	4.6	220	103	27	–	–
ONc1nc2nonc2nc1Nc1ccccc1F	87.6	–	41	–	–	–
O=C(NNc1nc2nonc2nc1Nc1ccccc1F)NC1CCCC1	1.1	–	23	–	–	–
CNNc1nc2nonc2nc1Nc1ccccc1F	77	–	15	–	–	–
CCCCC(=O)NNc1nc2nonc2nc1Nc1ccccc1F	14.2	–	71	–	–	–
ONc1nc2nonc2nc1Nc1cc(F)cc(F)c1	–	–	–	–	inactive	–
Cc1ccc(Nc2nc3nonc3nc2NO)cc1	–	–	–	–	inactive	–
NNc1nc2nonc2nc1Nc1ccccc1F	–	–	–	–	inactive	–
O=C(NNc1nc2nonc2nc1Nc1ccccc1F)c1cccc(F)c1	–	–	8	–	–	–
CC(C)(C)OC(=O)NNc1nc2nonc2nc1Nc1cccc(F)c1	1.1	–	32	–	–	–
O=C(ONc1nc2nonc2nc1Nc1ccccc1F)c1ccccc1F	> 100	–	45	–	–	–
CCCC(=O)NNc1nc2nonc2nc1Nc1ccccc1F	> 100	–	31	–	–	–
O=C(ONc1nc2nonc2nc1Nc1ccccc1F)c1ccccc1C(F)(F)F	6.56	–	65	–	–	–
CC(C)(C)C(=O)ONc1nc2nonc2nc1Nc1ccccc1F	5.2	–	86	–	–	–
CN(Nc1nc2nonc2nc1Nc1ccccc1F)C(=O)OC(C)(C)C	8.4	–	65	–	–	–
O=C(ONc1nc2nonc2nc1Nc1ccccc1F)c1ccc(OC(F)(F)F)cc1	0.34	–	118	15	–	2
O=C(NNc1nc2nonc2nc1Nc1ccccc1F)c1ccc(OC(F)(F)F)cc1	4.3	–	6	–	–	–
CCOC(=O)NNc1nc2nonc2nc1Nc1ccccc1F	16.3	–	65	–	–	–
ONc1nc2nonc2nc1Nc1ccc(-c2ccc(F)cc2)cc1	–	–	–	–	inactive	–
O=C(ONc1nc2nonc2nc1Nc1ccccc1F)c1cccc(C(F)(F)F)c1	1.58	–	71	–	–	–
CCCCOC(=O)NNc1nc2nonc2nc1Nc1ccccc1F	1.2	–	54	–	–	–
CC(C)COC(=O)NNc1nc2nonc2nc1Nc1ccccc1F	1.1	6600	88	35.4	–	–
O=C(ONc1nc2nonc2nc1Nc1ccccc1F)c1ccc(F)cc1F	1.36	–	97	–	–	–
